Experimental data: paper PMC6593233 (Frontiers in Pharmacology, 2019)
Entries after “also recorded” stand apart in the source; their conditions may differ. Like-named read-outs stand apart in the source and are kept apart here.

Key:
[1] = test system: isolated guinea pig hearts; assay: Isolated Langendorff-perfused guinea pig hearts: AERP, QTcB, heart rate
Protocol: AP14145 was supplied by Acesion Pharma. Dofetilide was purchased at Sigma-Aldrich (St. Louis, USA) for the Langendorff and Hello Bio (Bristol, UK) for the closed chest in vivo experiments. Ondansetron was purchased at Sigma-Aldrich (St. Louis, USA). For the Langendorff perfused heart experiments the compounds were dissolved in DMSO to make stock solutions and diluted to the final concentration in the Krebs-Henseleit buffer during the experiments. The final concentration of DMSO never exceeded 0.3% in the buffer. For the closed chest experiments, the compounds were first dissolved in PEG-400 and then diluted to a 50% saline and 50% PEG-400 solution. The Langendorff perfused heart experiments were performed using a total of 24 female Dunkin Hartley guinea pigs (350–450 g, Charles River, Saint-Germain-Nuelle, France). Guinea pigs were anesthetized with an i.p. injection of pentobarbital 200 mg/ml, lidocaine hydrochloride 20 mg/ml, (Glostrup Apotek, Denmark), dose 0.150 ml/100 g body weight. A tracheotomy was performed and the guinea pigs were ventilated with 60 strokes*5 ml/min using a rodent ventilator (7025 Rodent ventilator, Ugo Basile, Italy). The hearts were excised and cannulated in situ through a small puncture of the aorta and connected to the Langendorff retrograde perfusion setup (Hugo Sachs Elektronik, Harvard Apparatus GmbH, March, Germany). The hearts were retrogradely perfused at a constant perfusion pressure of 60 mmHg at 37°C, pH 7.4, Krebs-Henseleit buffer (in mM: […] The aortic perfusion pressure was determined with an ISOTEC transducer (Hugo Sachs Elektronik) and the coronary flow was measured with an ultrasonic flow meter (Transonic Systems Inc., USA). Both were connected to an amplifier (Hugo Sachs Elektronik). The electrical activity was measured using volume conducted ECGs and by placing epicardial monophasic action potential electrodes (MAPs) on the atria and ventricles. The hearts were immersed into a temperature-controlled bath containing pH 7.4 Krebs-Henseleit buffer. Perfusion pressure, coronary flow, ECG, and MAP analogue signals sampled at a frequency of 2k/s and converted by a 16/30 data acquisition system from PowerLab systems (ADInstruments, Oxford, UK) and monitored using LabChart 7 software (ADInstruments). A bipolar pacing electrode was placed on the right atrial appendage for epicardial pacing stimulation using square pulses of 2 ms durations at three times diastolic threshold at 300 beats per minute. During the entire experiment, the ECG was monitored and monophasic action potential electrodes were placed on each chamber of the heart. The hearts were then left to stabilize for 20 min at intrinsic heart rhythm. The right AERP was measured by 10 regular stimuli (S1) followed by a premature extra stimulus (S2) applied with 1-ms increments. The AERP was defined as the longest S1–S2 interval failing to elicit an action potential. […] After a period of stabilization, every Langendorff experiment consisted of four 20-min episodes ( Figure 1 ). […] During the entire experiment, the AERP was measured every 5 min and the ECG was continuously monitored.

guinea pigs = assay: In vivo closed chest atrially paced guinea pig model: AERP, QTcB, heart rate
Protocol: AP14145 was supplied by Acesion Pharma. […] For the Langendorff perfused heart experiments the compounds were dissolved in DMSO to make stock solutions and diluted to the final concentration in the Krebs-Henseleit buffer during the experiments. The final concentration of DMSO never exceeded 0.3% in the buffer. For the closed chest experiments, the compounds were first dissolved in PEG-400 and then diluted to a 50% saline and 50% PEG-400 solution. A total of 18 female guinea pigs (Dunkin Hartley HsdPoc : GH, Charles River) weighing 350-450 g were anesthetized with 5% isoflurane/oxygen in a sedation box. The guinea pigs were placed under artificial ventilation through a cannula placed in the trachea and anesthesia was reduced to 2.5% isoflurane/oxygen throughout the experiment. The temperature of the guinea pigs was monitored with a rectal thermometer and kept stable during the experiment using a heating lamp. Needle ECG electrodes were placed in each limb for ECG recordings (ADInstruments, UK). An electrophysiological catheter with eight electrodes (EPR-802) (Millar Inc., US) was placed in the right atrium via the right jugular vein. The two electrodes proximal to the tip of the catheter ([[…] et al., 2006]; [[…] et al., 2012]) were used to pace the atrium and six electrodes ([Waldo et al., 1996]; [[…] et al., 2003]; [Roukoz and […] et al., 2009]; [Grunnet et al., 2012]; [Zimetbaum, 2012]) were used to measure the electrical activity in the atrium. The AERP was measured as in the Langendorff experiments. Between the AERP recordings, the heart remained unpaced. An intravenous catheter (inside diameter 0.5, outside diameter 0.8 mm, Natsume Seisakusho, Japan) was placed in the right jugular vein alongside the electrophysiology catheter for drug infusion. […] First a period of 20 min baseline recording was conducted with AERP measurements every 5 min ( Figure 1 ). […] The AERP was measured every 5 min during baseline and every 2 min during and after infusion.

hKCa2.3 [2] = target: T1, hKCa2.3 (Homo sapiens, UniProt Q9UGI6); conditions: hKCa2.3, automated patch clamp, cited from earlier work
hKCa2.2 [3] = target: T2, hKCa2.2 (Homo sapiens, UniProt Q9H2S1); design: method as in Simó-Vicens et al., 2017a; conditions: hKCa2.2, automated patch clamp; ref Simó-Vicens et al., 2017a; cited from earlier work
hKCa2.2 [4] = target: T2, hKCa2.2; design: method as in Simó-Vicens et al., 2017b; conditions: hKCa2.2, manual patch clamp; ref Simó-Vicens et al., 2017b; cited from earlier work
hKCa2.3 [5] = target: T1, hKCa2.3; design: method as in Simó-Vicens et al., 2017b; conditions: hKCa2.3, manual patch clamp; ref Simó-Vicens et al., 2017b; cited from earlier work
hKv11.1 [6] = target: T3, hKv11.1 (Homo sapiens, UniProt Q12809); design: method as in Diness et al., 2017; conditions: hKv11.1, automated patch clamp; ref Diness et al., 2017; cited from earlier work
T3 construct: expressed in transfected cells

hKCa2.2 [7] = target: T2, hKCa2.2; assay: Automated patch clamp (QPatch), IKCa in HEK293 cells stably expressing hKCa2.2; type: cell-based; conditions: hKCa2.2, automated patch clamp, present study, n = 8
Protocol: (§1) The KCa2.2 manual patch-clamp experiments and KCa2.2/KCa2.3 QPatch experiments were conducted using symmetrical K^+ solutions. The extracellular solution contained (in mM) 0.1 CaCl2, 3 MgCl2, 154 KCl, 10 HEPES, and 10 glucose (pH = 7.4 and 285–295 mOsm). The intracellular solution contained (in mM) 8.106 CaCl2 (final free Ca^2+ concentration of 400 nM), 1.167 MgCl2, 10 EGTA, 108 KCl, 10 HEPES, 31.25/10 KOH/EGTA, and 15 KOH (pH = 7.2).
(§2) Bicuculline methiodide was used as a positive control for KCa2 specific current at the beginning and the end of the experiment.
(§3) The cells were cultured in Dulbecco’s modified Eagle’s medium (DMEM1965, Thermo Fisher, USA) supplemented with 26.2 mM NaHCO3, 25 mM HEPES, 10 ml L^-1 Glutamax (Gibco, USA), 10% fetal bovine serum (Biowest, France), 100 U ml^-1 of penicillin/streptomycin (Sigma, Germany), and 100 µg/ml Geneticin (Gibco, UK) […]
(§4) For IKCa and IKr, the mean of the last three data points was used for further analysis. […] Individual IC50 values were calculated for each experiment and then used to obtain the final mean ± S.E.M.

hKCa2.3 [8] = target: T1, hKCa2.3; assay: Automated patch clamp (QPatch), IKCa in HEK293 cells stably expressing hKCa2.3; type: cell-based
Protocol: as §1, §2, §3, §4

hKv11.1 [9] = target: T3, hKv11.1; assay: Automated patch clamp (QPatch), IKr in CHO-K1 cells stably expressing Kv11.1; type: cell-based; conditions: Kv11.1 current
Protocol: For the Kv11.1 experiments conducted on the automated QPatch machine, the extracellular solution contained (in mM) 145 NaCl, 4 KCl, 2 CaCl2, 1 MgCl2, 10 HEPES, and 10 glucose (pH = 7.4 and 305 mOsm adjusted with sucrose). The intracellular solution contained (in mM) 120 KCl, 31.25/10 KOH/EGTA, 5.4 CaCl2, 1.75 MgCl2, 4 mM Na2ATP, and 10 HEPES (pH = 7.2 and 285–296 mOsm adjusted with sucrose). Recordings were made before and after application of drug.
The cells were cultured in DMEM F12 (Sigma, Germany), 10% fetal bovine serum (Biowest, France) and 100 U ml^-1 of penicillin/streptomycin (Sigma, Germany), 100 µg/ml Geneticin (Gibco, UK), 100 µg/ml hygromycin (Sigma-Aldrich), and 2 mM glutamine (Gibco, UK).
On the day of experiment, when cells reached about 70–90% confluency, they were detached with Detachin (Genlantis, USA) and resuspended in serum free medium (C5467 SAFC, Switzerland) containing 25 mM HEPES, 0.04 mg/ml soy bean trypsin inhibitor (T6522 Sigma-Aldrich), and 100 U/ml penicillin/streptomycin and were kept in suspension for QPatch experiments.
Automated patch-clamp whole-cell recordings were performed using a QPatch 16 HT system and disposable single-hole QPlates (Sophion, Denmark). […]

hKCa2.2 [10] = target: T2, hKCa2.2; assay: Manual whole-cell patch clamp, IKCa in HEK293 cells transiently transfected with hKCa2.2; type: cell-based
Protocol: These stock solutions were stored at −20°C and aliquots were solubilized at the desired concentration on the day of the experiment.
as §1
as §3, with “France), and” for “France),”, “Germany); 1 to 2 days after the transfection, patch clamp experiments were conducted.” for “Germany), and 100 µg/ml Geneticin (Gibco, UK)”
Manual patch clamp recordings were made using a HEKA EPC9 amplifier and the PatchMaster software (HEKA Elektronik, Germany) at room temperature using the whole cell configuration. Fluorescence was used to detect successfully transfected cells. […]
as §4

T3 sequence (Q12809 whole entry): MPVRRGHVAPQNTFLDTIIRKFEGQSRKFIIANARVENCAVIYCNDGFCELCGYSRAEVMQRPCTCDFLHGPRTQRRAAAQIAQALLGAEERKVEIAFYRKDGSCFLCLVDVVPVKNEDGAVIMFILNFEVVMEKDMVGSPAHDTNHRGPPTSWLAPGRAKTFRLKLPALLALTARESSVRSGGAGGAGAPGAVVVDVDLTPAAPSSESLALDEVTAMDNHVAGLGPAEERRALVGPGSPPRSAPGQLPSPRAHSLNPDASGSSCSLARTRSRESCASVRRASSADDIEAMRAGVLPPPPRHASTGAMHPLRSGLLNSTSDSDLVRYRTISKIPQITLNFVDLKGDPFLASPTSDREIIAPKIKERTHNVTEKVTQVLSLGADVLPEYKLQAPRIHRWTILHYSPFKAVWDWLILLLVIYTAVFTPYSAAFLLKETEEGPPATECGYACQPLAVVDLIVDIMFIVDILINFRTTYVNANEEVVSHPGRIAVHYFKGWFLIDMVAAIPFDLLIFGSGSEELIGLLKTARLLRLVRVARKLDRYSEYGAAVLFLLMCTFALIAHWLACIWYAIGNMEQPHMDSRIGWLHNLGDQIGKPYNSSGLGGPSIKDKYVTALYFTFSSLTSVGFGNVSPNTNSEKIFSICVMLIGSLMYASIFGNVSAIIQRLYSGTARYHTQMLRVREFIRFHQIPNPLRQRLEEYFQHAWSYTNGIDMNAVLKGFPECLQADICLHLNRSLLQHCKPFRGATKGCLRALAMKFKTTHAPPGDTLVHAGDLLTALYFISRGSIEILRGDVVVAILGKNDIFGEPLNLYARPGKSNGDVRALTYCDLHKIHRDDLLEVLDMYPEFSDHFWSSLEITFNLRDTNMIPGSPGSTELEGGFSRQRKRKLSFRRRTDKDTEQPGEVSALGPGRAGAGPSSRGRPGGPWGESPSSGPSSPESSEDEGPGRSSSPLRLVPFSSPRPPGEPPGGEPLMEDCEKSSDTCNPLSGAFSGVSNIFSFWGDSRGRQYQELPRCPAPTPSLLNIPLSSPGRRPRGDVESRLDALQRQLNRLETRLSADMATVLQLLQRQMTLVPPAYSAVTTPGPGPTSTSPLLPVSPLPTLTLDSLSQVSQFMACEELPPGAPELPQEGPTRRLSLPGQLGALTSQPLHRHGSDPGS

CN(CCOc1ccc(NS(C)(=O)=O)cc1)CCc1ccc(NS(C)(=O)=O)cc1 [Dofetilide]
HR, % of baseline values ([1]; 10 nM, TMC 94 ± 4%): 83 ± 3% | QTcB ([1]; 10 nM, TMC 271 ± 5 ms): 306 ± 9 ms | AERP ([1]; 30 nM, TMC 64 ± 6 ms): 80 ± 4 ms | HR, % of baseline values ([1]; 30 nM, TMC 91 ± 4%): 80 ± 3% | QTcB ([1]; 30 nM, TMC 269 ± 6 ms): 313 ± 9 ms | Effect on AERP (guinea pigs; 0.01 mg/kg infused over 20 min): No effect on AERP | HR, % of the baseline average (guinea pigs; 0.01 mg/kg, minimum, 5 min after end of infusion, TMC 93 ± 2%): 82 ± 3% | QTcB (guinea pigs; after 5 min of infusion, 0.01 mg/kg over 20 min, TMC 280 ± 9 ms): 319 ± 11 ms | IC50 (hKCa2.3 [2]; ref Simó-Vicens et al., 2017a): 90 µM | IC50 (hKCa2.2 [3]): 60 µM

CC(=O)Nc1cccc2[nH]c(N[C@H](C)c3cccc(C(F)(F)F)c3)nc12 [AP14145]
AERP ([1]; 10 µM, end of wash-in, TMC 61 ± 5 ms): 77 ± 2 ms | AERP (maximum) ([1]; 30 µM, TMC 64 ± 6 ms): 93 ± 2 ms | AERP (maximum during infusion) (guinea pigs; 13.3 mg/kg infused over 20 min, TMC 75 ± 3 ms): 113 ± 6 ms | AERP (guinea pigs; after 6 min of i.v. infusion (4 mg/kg given), TMC 72 ± 2 ms): 97 ± 6 ms | IC50 (hKCa2.2 [4]): 1.1 µM | IC50 (hKCa2.3 [5]): 1.1 µM | IC50 (hKv11.1 [6]): 71.8 µM | IC50 (hKCa2.3 [2]; ref Diness et al., 2017): 1.3 µM

Cc1nccn1CC1CCc2c(c3ccccc3n2C)C1=O (stereo not drawn) [Ondansetron]
QTcB ([1]; 3 µM, TMC 269 ± 6 ms): 294 ± 5 ms | Effect on AERP compared to TMC ([1]; concentrations up to 3µM): did not affect AERP significantly | Effect on HR compared to TMC ([1]; concentrations up to 3µM): did not significantly affect HR | IC50 (hKCa2.2 [7]): > 30 µM | IC50 (hKCa2.3 [8]; hKCa2.3, automated patch clamp, present study, n = 8): > 30 µM | Effect on IKCa (hKCa2.3 [8]; up to 30 µM, hKCa2.3 current): did not inhibit IKCa | Concentration from which IKr is blocked (hKv11.1 [9]): ≥ 3000 nM | Effect on IKCa (hKCa2.2 [10]; 1 µM, hKCa2.2-expressing HEK cells, 400 nM intracellular calcium, n = 5): failed to inhibit IKCa; also recorded: did not inhibit IKCa | IC50 (hKCa2.2 [10]; hKCa2.2, manual patch clamp, present study): > 1 µM
